According to patent US9339486B2, “Heterocyclic modulators of cannabinoid receptors” (THE CLEVELAND CLINIC FOUNDATION, priority 2008, dated 2016):

Key:
[1] = test system: spinal nerve ligation neuropathic pain model; experiment: Tactile allodynia in SNL neuropathic pain model (von Frey); assay type: in vivo, rat; conditions: for effect of antagonist alone on paw withdrawal threshold: 5 mg/kg i.p. alone
Protocol: Adult, male Sprague Dawley (Harlan Sprague Dawley, Indianapolis, Ind.) rats weighing 120-150 gm were used in experimental procedures approved by the Animal Care and Use Committee of the M. D. Anderson Cancer Center, University of Texas. Animals were housed three per cage on a 12/12 hr light/dark cycle with water and food pellets available ad libitum.
All surgical procedures were performed under deep isoflurane anesthesia in 100% 02. The spinal nerve ligation (SNL) was performed as described previously. Kim, S. H., et al., An Experimental Model for Peripheral Neuropathy Produced by Segmental Spinal Nerve Ligation in the Rat, Pain, 1992, 50:355-63. Briefly, a midline incision above the lumbar spine exposed the left L6 transverse process. The process was then removed, the left L5 and L6 spinal nerves were isolated, and both nerves were tightly ligated with 6-0 silk. Prophylactic antibiotic (norfloxacin 5 mg/kg subcutaneously) and analgesic (buprenorphine, 0.2-0.5 mg/kg, or morphine, 2.5 mg/kg, given subcutaneously) were administered once daily for 3 days. All the experiments were conducted 10-14 days after spinal nerve ligation.
(§1) Rats were placed in a compartment with a wire mesh bottom and allowed to acclimate for a minimum of 30 min before testing. Mechanical sensitivity was assessed using a series of Von Frey filaments with logarithmic incremental stiffness (0.41, 0.70, 1.20, 2.00, 3.63, 5.50, 8.50, and 15.1 g) (Stoelting, Wood Dale, Ill.) as previously described, and 50% probability withdrawal thresholds were calculated with the up-down method. Chaplan, S. R., et al., Quantitative Assessment of Tactile Allodynia in the Rat Paw, J. Neurosci. Methods, 1994, 53:55-63; Dixon, W., The Up-and-Down Method for Small Samples, J. Am. Stat. Assoc., 1965, 60:967-78. In brief, beginning with the 2.0-g probe, filaments were applied to the plantar surface of a hind paw for 6-8 s, in an ascending or descending order after a negative or positive withdrawal response, respectively. Six consecutive responses from the first change in the response were used to calculate the withdrawal threshold (in grams). In cases where response thresholds fell outside the range of detection, 15.00 and 0.25 g were, respectively, assigned for continuous negative or positive responses to the limit of stimuli. The percent maximal possible effect (% MPE) was calculated as ([postdrug threshold−baseline threshold]/[cutoff threshold (15 g)−baseline threshold])×100.
(§2) Statistical analyses were carried out using BMDP 2007 (Statistical Solutions, Saugus, Mass., USA) and Graph Pad Prism (version 4.03; Graph Pad Software Inc., San Diego, Calif., USA). Data were analyzed using one-way ANOVA, repeated measures ANOVA, or t-test where appropriate. If ANOVA was significant, Tukey-Kramer post hoc analysis was used for multiple group comparison. Area under the curve (AUC) was calculated using the trapezoidal rule. The results are presented as mean±s.e. mean and were considered significant at P<0.05. Analyses of the dose-response curves and statistics were obtained using the pharmacologic software programs of Tallarida and Murray and included calculation of the ED50 values and their 95% confidence intervals (CI). Tallarida, R. J., et al., Manual of Pharmacologic Calculations With Computer Programs, Second ed. New York: Springer-Verlag, 1987.

[2] = test system: paclitaxel-induced neuropathic pain model; experiment: animal or person; assay type: in vivo, rat
Protocol: Groups of rats received daily i.p. injections of either vehicle or 1.0 mg/kg paclitaxel daily for four consecutive days for a final cumulative dose of 4 mg/kg; using an injection volume of 1 ml/kg. Polomano, R. C., et al., A Painful Peripheral Neuropathy in the Rat Produced by the Chemotherapeutic Drug, Paclitaxel, Pain, 2001, 94:293-304. The vehicle used in our experiments was the same vehicle used clinically for paclitaxel injections and is composed of a mixture of 10% saline and Cremophor EL® and […]. Baseline responses to mechanical stimulation of the hindpaw (see below) were established on day zero and continued daily until the development of neuropathy was confirmed.
as §1
To determine sensitivity to noxious heat, rats were placed in plexiglass enclosures on a transparent glass surface maintained at 30° C. and allowed to acclimate for 30 min. A thermal testing apparatus, consisting of a heat-emitting projector lamp and an electronic timer, was used. The device was activated after the lamp is placed directly beneath the planter surface of the hindpaw. The paw withdrawal latency in response to the radiant heat was recorded by a digital timer. A cutoff of 30 s was used to prevent potential tissue damage. After the baseline was measured, three groups of naïve rats (n=10) received 1.0, 3.0, or 10 mg/kg of the compound of Example 3 i.p. Response latencies were determined twice for each rat before drug injection and at 5, 10, 15, 30, 45, 60, 90 and 120 min after IP injection. The percent maximal possible effect (% MPE) was calculated as ([postdrug latency−baseline latency]/[cutoff time (30 s)−baseline latency])×100.
as §2

[3] = target: T1, CB2 (Homo sapiens (Human), UniProt P34972); experiment: CB2 Binding Assay ([3H]WIN 55212-2, cell membrane homogenates); conditions: for % Inhibition of Control Specific Binding / % of Control Specific Binding Mean / % of Control Specific Binding 1st / % of Control Specific Binding 2nd: CB2, test concentration 1.0E−05 (MD); for % of Control Specific Binding 1st: first replicate; for % of Control Specific Binding 2nd: second replicate; for % Inhibition of Control Specific Binding CB2: as repeated in Table 4
Protocol: (§3) Cell membrane homogenates (15 μg protein) were incubated for 120 min at 37° C. with 0.8 nM [3H]WIN 55212-2 (the reference standard [Munro, 1993 #1321]) in the absence or presence of the test compound in a buffer containing 50 mM HEPES/Tris HCL (pH 7.4), 5 mM MgCl2, 2.5 mM EGTA, and 0.1% BSA. Nonspecific binding was determined in the presence of 10 μM WIN 55212-2. After being incubated, the samples were filtered rapidly under vacuum through glass fiber filters (GF/B; Packard) presoaked with 0.3% PEI and rinsed several times with ice-cold buffer containing 50 mM Tris HCl (pH 7.4) and 0.5% BSA using a 96-sample cell harvester (Unifilter; Packard). The filters were dried then counted for radioactivity in a scintillation counter (Topcount; Packard) using a scintillation cocktail (Microscint 0; Packard). The results were expressed as a percentage of the inhibition of the control radioligand-specific binding. The reference standard compounds were tested in each experiment at several concentrations to obtain a competition curve from which its IC50 was calculated.

[4] = target: T2, CB1 (Homo sapiens (Human), UniProt P21554); experiment: CB1 Binding Assay ([3H]CP 55940, cell membrane homogenates); conditions: for % Inhibition of Control Specific Binding / % of Control Specific Binding Mean / % of Control Specific Binding 1st / % of Control Specific Binding 2nd: CB1, test concentration 1.0E−05 (MD); for % of Control Specific Binding 1st: first replicate; for % of Control Specific Binding 2nd: second replicate; for % Inhibition of Control Specific Binding CB1: as repeated in Table 3
Protocol: as §3, with “After” for “Cell membrane homogenates (15 μg protein) were incubated for 120 min at 37° C. with 0.8 nM [3H]WIN 55212-2 (the reference standard [Munro, 1993 #1321]) in the absence or presence of the test compound in a buffer containing 50 mM HEPES/Tris HCL (pH 7.4), 5 mM MgCl2, 2.5 mM EGTA, and 0.1% BSA. Nonspecific binding was determined in the presence of 10 μM WIN 55212-2. After”

[5] = target: T2, CB1; experiment: CB1/CB2 Functional Assay (GTPγ[35S]), CB1 membranes; assay type: biochemical; conditions: for % Activation Average: reference agonist CP55,940
Protocol: (§4) A dose response curve was generated at eight concentrations in duplicate on CB1 and CB2 in light of reference agonists. The reference agonists for cannabinoid receptors was CP55,940. See FIGS. 1A, 1B, 2A, 2B, 3A and 3B.
(§5) Membranes (CB1, ES-110-MG or CB2, ES-111-MG) were mixed with GDP (volume:volume) and incubated for at least 15 min on ice. In parallel, GTPγ[^35S] were mixed with the beads (volume:volume) just before starting the reaction. The following reagents were successively added in the wells of an Optiplate: 50 μl of ligand, 20 μl of the membranes:GDP mix, 10 μl of assay buffer for agonist testing and 20 μl of the GTPγ[^35S]: beads mix. The plates were covered with a topseal, shaken on an orbital shaker for 2 min, and then incubated between 30 to 60 min. at room temperature. Then the plates were centrifuged for 10 min at 2000 rpm, incubated at room temperature between 1 to 4 hours and counted for 1 min with a PerkinElmer TopCount reader.

[6] = target: T1, CB2; experiment: CB1/CB2 Functional Assay (GTPγ[35S]), CB2 membranes; assay type: biochemical; conditions: for EC50: read-out: EC50 (nM) for GTP Binding; for % Activation Average: reference agonist CP55,940
Protocol: as §4, §5

T2 sequence (P21554 whole entry): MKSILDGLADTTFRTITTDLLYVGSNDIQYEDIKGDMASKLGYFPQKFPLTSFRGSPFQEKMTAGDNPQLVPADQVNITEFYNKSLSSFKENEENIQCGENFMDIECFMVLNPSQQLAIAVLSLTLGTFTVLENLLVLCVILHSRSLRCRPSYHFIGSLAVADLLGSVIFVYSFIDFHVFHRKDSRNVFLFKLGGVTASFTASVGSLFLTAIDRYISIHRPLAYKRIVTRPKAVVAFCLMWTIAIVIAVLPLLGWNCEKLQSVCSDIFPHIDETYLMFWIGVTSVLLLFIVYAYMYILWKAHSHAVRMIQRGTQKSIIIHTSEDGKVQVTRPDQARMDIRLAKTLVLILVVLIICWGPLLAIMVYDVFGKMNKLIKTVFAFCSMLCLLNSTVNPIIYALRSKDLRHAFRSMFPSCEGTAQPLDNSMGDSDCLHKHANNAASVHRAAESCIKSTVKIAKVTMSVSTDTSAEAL
T1 sequence (P34972 whole entry): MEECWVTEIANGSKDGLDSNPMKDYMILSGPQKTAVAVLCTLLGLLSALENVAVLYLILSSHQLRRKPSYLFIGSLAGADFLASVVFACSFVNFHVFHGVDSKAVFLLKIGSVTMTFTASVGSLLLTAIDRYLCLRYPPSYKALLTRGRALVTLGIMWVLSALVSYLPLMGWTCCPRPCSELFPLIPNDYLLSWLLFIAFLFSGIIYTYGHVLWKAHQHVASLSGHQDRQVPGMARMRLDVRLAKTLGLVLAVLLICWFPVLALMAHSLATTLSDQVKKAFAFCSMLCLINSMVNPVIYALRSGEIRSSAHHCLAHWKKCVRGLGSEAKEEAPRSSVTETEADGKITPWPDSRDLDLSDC

## Cc1c(C(=O)NN2CCCCC2)nn(-c2ccc(Cl)cc2Cl)c1-c1ccc(I)cc1 [AM251, reference compound]
[1]
  effect of antagonist alone on paw withdrawal threshold: had no effect

## COc1ccc(C(=O)c2c(C)n(CCN3CCOCC3)c3cc(I)ccc23)cc1 [AM630, reference compound]
[1]
  effect of antagonist alone on paw withdrawal threshold: had no effect

## CN1CCCCC1Cn1cc(C(=O)c2cc([N+](=O)[O-])ccc2I)c2ccccc21 (stereo not shown) [AM1241, reference compound]
[1]; 15 mg/kg i.p.
  antiallodynic effect versus vehicle: produced antiallodynic effects
[1]; AM1241 15 mg/kg i.p.
  effect of naloxone pretreatment on analgesic effects: significantly reversed
[2]; 5 mg/kg i.p.
  effect on reversing thermal hyperalgesia compared with 15 mg/kg compound of Example 3 i.p.: significantly less than

## CC1(Cc2ccccc2)COc2cc(C(=O)Nc3ccccc3I)ccc21 (stereo not shown) [Example 1, 3-Benzyl-3-methyl-2,3-dihydro-benzofuran-6-carboxylic acid (2-iodo-phenyl)-amide]
[3]
  % Inhibition of Control Specific Binding: 23%
  % of Control Specific Binding Mean: 76.6%
  % of Control Specific Binding 1st: 78.3%
  % of Control Specific Binding 2nd: 74.8%
[4]
  % Inhibition of Control Specific Binding: 14%
  % of Control Specific Binding Mean: 85.5%
  % of Control Specific Binding 1st: 85.7%
  % of Control Specific Binding 2nd: 85.3%

## CC1(Cc2ccccc2)COc2cc(C(=O)NC3CCCCC3)ccc21 (stereo not shown) [Example 2, 3-Benzyl-3-methyl-2,3-dihydro-benzofuran-6-carboxylic acid cyclohexylamide]
[5]
  Compound Function: Inverse
  % Activation Average: −35.79%
[6]
  Compound Function: Agonist
  EC50: 479 nM
  % Activation Average: 52.94%
[3]
  % Inhibition of Control Specific Binding: 85%
  % of Control Specific Binding Mean: 14.9%
  % of Control Specific Binding 1st: 21.3%
  % of Control Specific Binding 2nd: 8.6%
  % Inhibition of Control Specific Binding CB2: 85%
[4]
  % Inhibition of Control Specific Binding: 68%
  % of Control Specific Binding Mean: 31.8%
  % of Control Specific Binding 1st: 29.9%
  % of Control Specific Binding 2nd: 33.8%
  % Inhibition of Control Specific Binding CB1: 68%

## CC1(Cc2ccccc2)COc2ccc(C(=O)Nc3ccccc3I)cc21 (stereo not shown) [Example 4, 3-Benzyl-3-methyl-2,3-dihydro-benzofuran-5-carboxylic acid-o-iodoanilide]
[3]
  % Inhibition of Control Specific Binding: 15%
  % of Control Specific Binding Mean: 84.7%
  % of Control Specific Binding 1st: 83.9%
  % of Control Specific Binding 2nd: 85.5%
[4]
  % Inhibition of Control Specific Binding: 9%
  % of Control Specific Binding Mean: 90.5%
  % of Control Specific Binding 1st: 85.9%
  % of Control Specific Binding 2nd: 95.1%

## CC1(Cc2ccccc2)COc2ccc(C(=O)NC3CCCCC3)cc21 (stereo not shown) [Example 5, 3-benzyl-3-methyl-2,3-dihydrobenzofuran-5-carboxylic acid-cyclohexylamide]
[5]
  Compound Function: Inverse
  % Activation Average: −36.02%
[6]
  Compound Function: Agonist
  EC50: 409 nM
  % Activation Average: 55.71%
[3]
  % Inhibition of Control Specific Binding: 72%
  % of Control Specific Binding Mean: 27.5%
  % of Control Specific Binding 1st: 29.9%
  % of Control Specific Binding 2nd: 25.1%
  % Inhibition of Control Specific Binding CB2: 72%
[4]
  % Inhibition of Control Specific Binding: 43%
  % of Control Specific Binding Mean: 57.2%
  % of Control Specific Binding 1st: 53.5%
  % of Control Specific Binding 2nd: 60.8%
  % Inhibition of Control Specific Binding CB1: 43%

## CC1(Cc2ccccc2)COc2ccc(C(=O)N3CCCCC3)cc21 (stereo not shown) [Example 6, 3-benzyl-3-methyl-2,3-dihydrobenzofuran-5-carboxylic acid-piperidine amide]
[3]
  % Inhibition of Control Specific Binding: 31%
  % of Control Specific Binding Mean: 69.4%
  % of Control Specific Binding 1st: 71.6%
  % of Control Specific Binding 2nd: 67.3%

## C=CCN1CC[C@]23c4c5ccc(O)c4O[C@H]2C(=O)CC[C@@]3(O)[C@H]1C5 [naloxone, reference compound]
[1]; 10 mg/kg i.p.
  effect per se on paw withdrawal threshold: did not affect paw withdrawal threshold

## CC(=O)O[C@H]1C(=O)[C@@]2(C)[C@H]([C@H](OC(=O)c3ccccc3)[C@]3(O)C[C@H](OC(=O)[C@H](O)[C@@H](NC(=O)c4ccccc4)c4ccccc4)C(C)=C1C3(C)C)[C@]1(OC(C)=O)CO[C@@H]1C[C@@H]2O [paclitaxel, reference compound]
[2]; rat, in vivo
  paw withdrawal threshold to mechanical stimulation, left paw: 2.8 ± 0.15 g
  paw withdrawal threshold to mechanical stimulation, right paw: 2.9 ± 0.19 g
